Values quoted from earlier work in article PMC2505184 (Bioconjugate chemistry, 2008).

## O=C([O-])CN1CCCN(CC(=O)[O-])CCN(CC(=O)[O-])CCCN(CC(=O)[O-])CC1.[64Cu+2] [^64Cu-TETA]
  in vitro serum stability: high in vitro serum stability
